# Test results as given in patent publication US5288709A, “Erythromycin derivatives” (priority 1991, dated 1994).
# Read-outs that look alike come from different tables or passages of the source.
# Key:
# [1] = test system: Enterobacter aerogenes ATCC 13048; assay: In-vitro antimicrobial activity primary screen (agar dilution MIC); type: cell-based; settings: Klebsiella aerogenes, ATCC13048, 24 h
# Outline: (§1)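 Steps: prepare 12 BHI agar plates with serial aqueous dilutions; inoculate with 1:100 dilutions (1:10 for Streptococcus and other slow growers); incubate 35-37° C, 20-24 h; score MIC as lowest concentration with no growth, slight haze or isolated colonies.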
# [2] = test system: Enterococcus faecium ATCC 8043; assay: as above; type: cell-based
# Outline: as §1
# Escherichia coli DC-2 = assay: as above; type: cell-based; settings: Escherichia coli DC-2, BHI agar, 20-24 h
# Outline: as §1
# Escherichia coli H560 = assay: as above; type: cell-based; settings: Escherichia coli, H560, 24 h, Escherichia coli H560; BHI agar, 20-24 h
# Outline: as §1
# Escherichia coli SS = assay: as above; type: cell-based; settings: BHI agar, 20-24 h
# Outline: as §1
# [3] = test system: Micrococcus luteus ATCC 4698; assay: as above; type: cell-based; settings: 20-24 h
# Outline: as §1
# [4] = test system: Micrococcus luteus ATCC 9341; assay: as above; type: cell-based; settings: BHI agar, 20-24 h
# Outline: as §1
# [5] = test system: Providencia stuartii CMX 640; assay: as above; type: cell-based; settings: Providencia stuartii, CMX640, 24 h
# Outline: as §1
# [6] = test system: Pseudomonas aeruginosa A5007; assay: as above; type: cell-based; settings: Pseudomonas aeruginosa, A5007, 24 h
# Outline: as §1
# [7] = test system: Pseudomonas aeruginosa BMH10; assay: as above; type: cell-based; settings: Pseudomonas aeruginosa, BMH10, 24 h, BHI agar, 20-24 h
# Outline: as §1
# [8] = test system: Pseudomonas aeruginosa K799/61; assay: as above; type: cell-based
# Outline: as §1
# [9] = test system: Pseudomonas aeruginosa K799/WT; assay: as above; type: cell-based; settings: Pseudomonas aeruginosa, K799/WT, 24 h
# Outline: as §1
# Pseudomonas cepacia 2961 = assay: as above; type: cell-based; settings: BHI agar, 20-24 h
# Outline: as §1
# [10] = test system: Staphylococcus aureus 45 RAR2; assay: as above; type: cell-based; settings: Staphylococcus aureus, 45RAR2, 24 h, BHI agar, 20-24 h
# Outline: as §1
# Staphylococcus aureus 45 = assay: as above; type: cell-based; settings: BHI agar, 20-24 h, read-out: MIC
# Outline: as §1
# [11] = test system: Staphylococcus aureus A5177; assay: as above; type: cell-based; settings: Staphylococcus aureus, A5177, 24 h, Staphylococcus aureus A5177; BHI agar, 20-24 h
# Outline: as §1
# [12] = test system: Staphylococcus aureus ATCC 6538P; assay: as above; type: cell-based; settings: BHI agar, 20-24 h
# Outline: as §1
# [13] = test system: Staphylococcus epidermidis 3519; assay: as above; type: cell-based; settings: BHI agar, 20-24 h
# Outline: as §1
# [14] = test system: Streptococcus agalactiae CMX 508; assay: as above; type: cell-based; settings: CMX508, BHI agar, 20-24 h, read-out: MIC
# Outline: as §1
# [15] = test system: Streptococcus bovis A5169; assay: as above; type: cell-based; settings: Streptococcus equinus, BHI agar, 20-24 h
# Outline: as §1
# [16] = test system: Streptococcus pyrogenes 2548 INDUC; assay: as above; type: cell-based; settings: BHI agar, 20-24 h
# Outline: as §1
# [17] = test system: Streptococcus pyrogenes EES61; assay: as above; type: cell-based; settings: BHI agar, 20-24 h
# Outline: as §1
# [18] = test system: Streptococcus pyogenes C-203; assay: In-vivo acute mouse protection assay; parameters: species or system Streptococcus pyogenes; female Swiss albino mice; settings: dosed 1 and 5 h post-infection, observed 7 days
# Method: (§2) An acute mouse protection test was conducted on ten mice with each of three concentrations of selected compounds of the invention. Each concentration was a four-fold dilution of the previous concentration. The initial concentration will vary with the microorganism with which the mouse is challenged.
# (§3) The acute mouse protection test was conducted on female, Swiss albino mice, 18-20 grams in weight. […] To check the potency of the inoculum, a titration of the indicated test organism was carried out in control animals. The titration determines the LD50 for a particular microorganism. The treatment groups of animals were dosed orally, by gavage, or subcutaneously with the test compounds at 1 and 5 hours post-infection and observed for 7 days. The ED50 were calculated using the mortality data collected.
# [19] = test system: Streptococcus pneumoniae (ATCC 6303); assay: In-vivo acute mouse protection assay; parameters: species or system Streptococcus pneumoniae; female Swiss albino mice; settings: dosed 1 and 5 h post-infection, observed 7 days
# Method: as §2, §3
# [20] = Pharmacokinetic evaluation in dogs after a 10 mg/kg dose; settings: dog, plasma; for half-life: t1/2 (biological half life); for bioavailability: % ABS (percent absorbance), from AUC (absolute bioavailability); for Cmax: Cmax (maximum concentration in blood); for Tmax: Tmax (time to achieve maximum concentration in blood)
# Method: Selected compounds of the present invention were formulated as solutions in dilute lactobionic acid at a concentration of 10 or 20 mg/ml. Groups of two or three dogs were given a 10 mg macrolide/kg intravenous bolus or oral dose (by gavage). Plasma samples, obtained at selected time points from 15 minutes to 32 hours after dosing, were assayed using reverse phase HPLC with electrochemical detection (parent drug) and microbiological assay (total microbiological activity). Plasma concentration time curves were subjected to multi exponential curve fitting to determine terminal elimination half life values. Area under the curve (AUC) values, calculated by the trapezoidal method, were used to calculate absolute bioavailability.
# Acinetobacter SP CMX 669 = assay: In-vitro antimicrobial activity primary screen (agar dilution MIC); type: cell-based; settings: Acinetobacter SP CMX 669, BHI agar, 20-24 h
# Outline: as §1
# [21] = test system: Klebsiella pneumoniae ATCC 8045; assay: as above; type: cell-based; settings: Klebsiella pneumoniae, ATCC8045, 24 h
# Outline: as §1
# [22] = Burkholderia cepacia, 2961, 24 h
# [23] = Staphylococcus aureus, ATCC6538P, 24 h
# [24] = po, oral 10 mg/kg, HPLC (parent drug)
# [25] = po, oral 10 mg/kg, microbiological assay
structure (smiles),measurement,setting,value
"CC[C@H]1OC(=O)[C@H](C)[C@@H](O[C@H]2C[C@@](C)(OC)[C@H](N)[C@H](C)O2)[C@H](C)[C@@H](O[C@@H]2O[C@H](C)C[C@H](N(C)C)[C@H]2O)[C@](C)(O)C[C@@H](C)[C@@H]2O[C@@]1(C)[C@@H](O)[C@H]2C [Example 13, (4""R,9S,11S) 4""-Amino-9-deoxo-4"",12-dideoxy-9,12-epoxyerythromycin A]",MIC,[1],100 µg/mL
same,MIC,"[2]; ATCC8043, Enterococcus faecium ATCC 8043, BHI agar, 20-24 h, read-out: MIC",0.05 µg/mL
same,MIC,"Escherichia coli DC-2; Escherichia coli, DC2, 24 h",50 µg/mL
same,MIC,Escherichia coli H560,12.5 µg/mL
same,MIC,"Escherichia coli SS; Escherichia coli, 24 h",0.2 µg/mL
same,MIC,"[3]; ATCC4698, BHI agar, read-out: MIC",0.05 µg/mL
same,MIC,"[4]; Micrococcus luteus, ATCC9341, 24 h",0.01 µg/mL
same,MIC,[5],> 100 µg/mL
same,MIC,[6],> 100 µg/mL
same,MIC,[7],100 µg/mL
same,MIC,"[8]; Pseudomonas aeruginosa, K799/61, 24 h, Pseudomonas aeruginosa K799/61, BHI agar, 20-24 h",1.56 µg/mL
same,MIC,[9],100 µg/mL
same,MIC,Pseudomonas cepacia 2961; [22],> 100 µg/mL
same,MIC,[10],0.2 µg/mL
same,MIC,Staphylococcus aureus 45,0.2 µg/mL
same,MIC,[11],0.78 µg/mL
same,MIC,[12]; [23],0.2 µg/mL
same,MIC,[13]; read-out: MIC,0.2 µg/mL
same,MIC,[14],0.02 µg/mL
same,MIC,[15]; read-out: MIC,0.01 µg/mL
same,MIC,[16]; read-out: MIC,0.78 µg/mL
same,MIC,[17]; read-out: MIC,< 0.005 µg/mL
same,ED50,"[18]; C203, 168 h, oral",51.5 mg/kg
same,ED50,"[18]; C203, sc, 168 h, subcutaneous",9.3 mg/kg
same,ED50,"[19]; ATCC6303, 168 h, oral, read-out: ED50",84.8 mg/kg
same,ED50,"[19]; ATCC6303, sc, 168 h, subcutaneous",4 mg/kg
same,half-life,"[20]; iv, IV 10 mg/kg, HPLC (parent drug)",9.9 h
same,half-life,"[20]; iv, IV 10 mg/kg, microbiological assay",18.3 h
same,bioavailability,[20]; [24],68%
same,bioavailability,[20]; [25],58%
same,Cmax,[20]; [24],1600 ng/mL
same,Cmax,[20]; [25],1700 ng/mL
same,Tmax,[20]; [24],0.4 h
same,Tmax,[20]; [25],0.4 h
same,half-life,[20]; [24],9.6 h
same,half-life,[20]; [25],9.1 h
"CC[C@H]1OC(=O)[C@H](C)[C@@H](O[C@H]2C[C@@](C)(OC)[C@@H](O)[C@H](C)O2)[C@H](C)[C@@H](O[C@@H]2O[C@H](C)C[C@H](N(C)C)[C@H]2O)[C@](C)(O)C[C@@H](C)C(=O)[C@H](C)[C@@H](O)[C@]1(C)O [Std, Erythromycin A, reference compound]",MIC,Acinetobacter SP CMX 669,3.1 microgram/mL
same,MIC,"Acinetobacter SP CMX 669; Acinetobacter, SPCMX669, 24 h",6.2 µg/mL
same,MIC,[1],100 µg/mL
same,MIC,"[2]; Enterococcus faecium, ATCC8043, 24 h",0.05 µg/mL
same,MIC,Escherichia coli DC-2,25 microgram/mL
same,MIC,Escherichia coli H560,25 µg/mL
same,MIC,Escherichia coli SS,0.39 microgram/mL
same,MIC,"Escherichia coli SS; Escherichia coli, 24 h",0.2 µg/mL
same,MIC,[21],100 µg/mL
same,MIC,[3]; BHI agar,0.2 microgram/mL
same,MIC,"[3]; Micrococcus luteus, ATCC4698, 24 h, BHI agar",0.1 µg/mL
same,MIC,[4],0.02 microgram/mL
same,MIC,[5],> 100 µg/mL
same,MIC,[6],> 100 µg/mL
same,MIC,"[8]; Pseudomonas aeruginosa K799/61, BHI agar, 20-24 h",1.56 microgram/mL
same,MIC,"[8]; Pseudomonas aeruginosa, K799/61, 24 h",0.78 µg/mL
same,MIC,[9],100 µg/mL
same,MIC,Pseudomonas cepacia 2961,100 microgram/mL
same,MIC,Pseudomonas cepacia 2961; [22],> 100 µg/mL
same,MIC,[12],0.1 microgram/mL
same,MIC,[12]; [23],0.2 µg/mL
same,MIC,[13],0.1 microgram/mL
same,MIC,"[13]; Staphylococcus epidermidis, 3519, 24 h",0.2 µg/mL
same,MIC,"[15]; A5169, 24 h",0.02 µg/mL
same,MIC,[16],1.56 microgram/mL
same,MIC,"[16]; Streptococcus, 2548INDUC, 24 h",3.1 µg/mL
same,MIC,"[17]; Streptococcus, EES61, 24 h",0.02 µg/mL
same,bioavailability,[20]; [25],72%
same,Cmax,[20]; [25],2500 ng/mL
same,Tmax,[20]; [25],0.3 h
